Results from ChEMBL document CHEMBL1132837, “3-(4-Piperidinyl)- and 3-(8-aza-bicyclo[3.2.1]oct-3-yl)-2-phenyl-1H-indoles as bioavailable h5-HT2A antagonists” (Bioorg Med Chem Lett, 2000).

Assays:
[1] = target: Serotonin 2 receptors; 5-HT2a & 5-HT2c (Homo sapiens) (UniProt P28223+P28335); assay: Selectivity as ratio of Ki against human 5-HT2C and 5-HT2A receptors; assay type: protein assay
[2] = target: Dopamine D2 receptor and serotonin 2a receptor (Homo sapiens) (UniProt P14416+P28223); assay: Selectivity as ratio of Ki against human dopamine D2 and 5-HT2A receptors; assay type: protein assay
[3] = Oral bioavailability in rat; assay type: ADME, organism-based; conditions: in vivo
[4] = target: 5-hydroxytryptamine receptor 2A (Homo sapiens, UniProt P28223); assay: Displacement of [3H]ketanserin from human 5-hydroxytryptamine 2A receptor expressed in CHO cells; assay type: cell-based
[5] = Oral bioavailability was determined in dogs; assay type: ADME, organism-based, Canis lupus familiaris; conditions: dog, in vivo, read-out: Bioavailabiility

Chain of 5-hydroxytryptamine receptor 2A (P28223 whole entry): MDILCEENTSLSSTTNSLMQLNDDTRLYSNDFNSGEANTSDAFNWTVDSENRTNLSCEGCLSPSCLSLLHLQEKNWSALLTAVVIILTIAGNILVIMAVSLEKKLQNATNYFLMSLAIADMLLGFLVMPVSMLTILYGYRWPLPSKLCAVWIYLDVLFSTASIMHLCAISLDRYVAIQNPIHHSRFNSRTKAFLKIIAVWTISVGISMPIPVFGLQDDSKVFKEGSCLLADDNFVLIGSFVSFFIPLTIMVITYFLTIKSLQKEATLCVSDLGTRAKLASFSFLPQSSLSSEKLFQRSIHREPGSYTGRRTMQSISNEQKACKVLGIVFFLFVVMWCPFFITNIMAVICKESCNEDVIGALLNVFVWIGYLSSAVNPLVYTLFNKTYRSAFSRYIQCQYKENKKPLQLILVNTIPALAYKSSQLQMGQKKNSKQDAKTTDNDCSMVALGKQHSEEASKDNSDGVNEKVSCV
Chain of Serotonin 2 receptors; 5-HT2a & 5-HT2c (Homo sapiens) (P28223 whole entry, looked up): as the sequence (P28223 whole entry) above
Chain of Serotonin 2 receptors; 5-HT2a & 5-HT2c (Homo sapiens) (P28335 whole entry, looked up): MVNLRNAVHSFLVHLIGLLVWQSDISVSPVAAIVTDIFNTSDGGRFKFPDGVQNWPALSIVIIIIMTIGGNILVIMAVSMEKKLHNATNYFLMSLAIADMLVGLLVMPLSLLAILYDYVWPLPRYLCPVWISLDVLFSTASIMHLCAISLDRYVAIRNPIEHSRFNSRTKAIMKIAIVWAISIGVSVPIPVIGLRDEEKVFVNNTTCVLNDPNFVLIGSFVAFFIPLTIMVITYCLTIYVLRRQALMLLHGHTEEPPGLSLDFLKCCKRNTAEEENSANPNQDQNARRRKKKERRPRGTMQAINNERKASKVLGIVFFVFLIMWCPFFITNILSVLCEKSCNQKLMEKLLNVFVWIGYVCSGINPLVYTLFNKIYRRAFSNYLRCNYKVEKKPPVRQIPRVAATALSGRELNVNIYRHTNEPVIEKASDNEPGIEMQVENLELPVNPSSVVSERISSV
Chain of Dopamine D2 receptor and serotonin 2a receptor (Homo sapiens) (P14416 whole entry, looked up): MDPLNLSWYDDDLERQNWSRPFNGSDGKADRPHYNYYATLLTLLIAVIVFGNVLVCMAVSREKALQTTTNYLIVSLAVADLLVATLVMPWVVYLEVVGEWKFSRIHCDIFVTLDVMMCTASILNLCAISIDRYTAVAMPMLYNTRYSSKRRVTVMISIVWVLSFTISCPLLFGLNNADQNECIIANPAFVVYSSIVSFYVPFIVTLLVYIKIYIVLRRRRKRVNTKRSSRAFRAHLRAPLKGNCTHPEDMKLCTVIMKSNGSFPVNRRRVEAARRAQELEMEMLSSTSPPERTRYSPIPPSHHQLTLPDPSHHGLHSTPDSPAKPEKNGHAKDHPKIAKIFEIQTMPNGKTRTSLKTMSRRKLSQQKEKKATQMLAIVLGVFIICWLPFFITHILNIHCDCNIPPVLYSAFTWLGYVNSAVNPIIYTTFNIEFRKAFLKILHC
Chain of Dopamine D2 receptor and serotonin 2a receptor (Homo sapiens) (P28223 whole entry, looked up): as the sequence (P28223 whole entry) above

bioavailability [5] | SMILES | Ratio [1] | Ratio [2] | bioavailability [3] | Ki [4]
 | c1ccc(-c2[nH]c3ccccc3c2CCN2CCCCC2)cc1 | 100 | 330 | < 5% | 
 | c1ccc(CCN2C3CCC2CC(N2CCC(c4c(-c5ccccc5)[nH]c5ccccc45)CC2)C3)cc1 (stereo in doubt; 17) [listing 1 of 2 here] | 860 | 1080 |  | 
 | c1ccc(CCN2C3CCC2CC(N2CCC(c4c(-c5ccccc5)[nH]c5ccccc45)CC2)C3)cc1 (stereo in doubt; 18) [listing 1 of 2 here] |  |  |  | 2.6 nM
 | c1ccc(CCN2C3CCC2CC(N2CCC(c4c(-c5ccccc5)[nH]c5ccccc45)CC2)C3)cc1 (stereo in doubt; 18) [listing 2 of 2 here] | 60 | 170 |  | 
 | c1ccc(CN2CCC(c3c(-c4ccccc4)[nH]c4ccccc34)CC2)cc1 | 30 | 2 |  | 28 nM
 | c1ccc(-c2[nH]c3ccccc3c2C2CCNCC2)cc1 | 30 | 130 |  | 12.1 nM
33% | O=C1NCCN1CCN1CCC(c2c(-c3ccccc3)[nH]c3ccccc23)CC1 | 160 | 250 | 40% | 7.3 nM
 | c1ccc(CCN2CCC(c3c(-c4ccccc4)[nH]c4ccccc34)CC2)cc1 | 160 | 690 | 12% | 0.5 nM
 | CN1[C@@H]2CC[C@H]1C[C@H](N1CCC(c3c(-c4ccccc4)[nH]c4ccccc34)CC1)C2 (stereo in doubt; 15) [listing 1 of 2 here] | 45 | 960 |  | 
 | CN1[C@@H]2CC[C@H]1C[C@H](N1CCC(c3c(-c4ccccc4)[nH]c4ccccc34)CC1)C2 (stereo in doubt; 13) [listing 1 of 2 here] |  |  |  | 1.1 nM
 | CN1[C@@H]2CC[C@H]1C[C@H](N1CCC(c3c(-c4ccccc4)[nH]c4ccccc34)CC1)C2 (stereo in doubt; 15) [listing 2 of 2 here] |  |  |  | 1.5 nM
 | c1ccc(-c2[nH]c3ccccc3c2C2CC3CCC(C2)N3)cc1 (configuration not stated) | 200 | 1060 |  | 1.8 nM
 | CN1[C@@H]2CC[C@H]1C[C@H](N1CCC(c3c(-c4ccccc4)[nH]c4ccccc34)CC1)C2 (stereo in doubt; 13) [listing 2 of 2 here] | 70 | 1190 |  | 
 | c1ccc(CCN2C3CCC2CC(N2CCC(c4c(-c5ccccc5)[nH]c5ccccc45)CC2)C3)cc1 (stereo in doubt; 17) [listing 2 of 2 here] |  |  | 18% | 1.2 nM
 | CN1CCC(c2c(-c3ccccc3)[nH]c3ccccc23)CC1 | 30 | 205 |  | 7.8 nM
